Laboratory results taken from patent publication US4556674A, “2-Imino-pyrrolidines, process for their preparation, and therapeutic compositions containing same” (Laboratoires Jacques Logeais, priority 1983, dated 1985).

Columns and labels:
[1] = system: collagen-induced blood-platelet aggregation (platelet rich plasma); assay: Collagen-induced blood-platelet aggregation; assay type: cell-based, rabbit; settings: for minimal effective concentration: Oryctolagus cuniculus, Platelet, read-out: Collagen-induced blood-platelet aggregation: Threshold concentrations (inhibition of aggregation <50%)
Description: Collagen-induced blood-platelet aggregation
Blood samples were taken from the carotid artery in rabbits, using an anticoagulant (sodium citrate at 3.8%, 1 volume per 9 volumes of blood). The platelet rich plasma (PRP) was obtained by slow centrifugation (1200 RPM for 10 mn), and the platelet poor plasma (PPP) by rapid centrifugation (4500 RPM for 15 mn). The PRP samples were placed in the cell of an aggregometer, incubated at 37° C., after which was added thereto Michaelis buffer containing the test compound (0.04 ml), followed by the aggregating agent (collagen: 0.08 ml of collagen suspension previously incubated at 33° C. for 90 seconds). Blood-platelet aggregation is evidenced by the decrease of the optical density of the PRP (Initial O.D. of the PRP: 100%. Initial O.D. of the PPP=0%.)

Acute Toxicity in Mice = assay type: in vivo; settings: mouse, in vivo, death rate recorded 9 days after treatment
Description: (§1) The compounds were administered orally or intraperitoneally, in the form of a solution in physiological saline (0,9 % NaCl), to male mice of Swiss strain (body weight: 22-25 g). The death rate was recorded 9 days after the treatment. […]

[2] = system: aconitine-induced dysrhythmia; assay: Anti-dysrhythmic activity, aconitine test in rats; assay type: in vivo, rat
Description: The animals are anesthetized with urethane (1 g/kg i.p.); an aconitine sulfate injection (27.5 μg/kg) is made in the pre-catheterized jugular vein, 30 minutes after administration by the same route of one of the test compounds. The time delay before the appearance of the first burst of dysrhythmia is noted on the electrocardiogram (D2 lead recording) and compared with reference animals.

human plasma clots = assay: Fibrinolytic activity (lysis of human plasma clots); design: Concentration inducing lysis of the clot within 24 hours / Concentration inducing lysis of the clot within 48 hours: unit not given here; settings: for Concentration inducing lysis of the clot within 24 hours / Concentration inducing lysis of the clot within 48 hours: human plasma clot, veronal buffer pH 7.2-7.4, 37° C.
Description: The following method was used.
Human plasma clots were prepared by recalcification (one drop of calcium thrombase at 20 U/ml per 0.5 ml of plasma), so that the clot formed around the hook of a glass rod. The clots were then suspended in buffered solutions (veronal buffer pH 7.2-7.4) maintained at 37° C. The eventual lysis of the clot is recorded after 24 hrs and 48 hrs incubation.

[3] = system: male mice of Swiss strain; assay: Acute Toxicity in Mice; assay type: in vivo; settings: result in words
Description: as §1

α-adrenolytic activity = α-adrenolytic activity observed in dog after an injection of nor-adrenalin; assay type: in vivo; settings: result in words
cardiac rhythm = settings: described in DE-A-1770 752; cited from earlier work
[4] = rabbit PRP, 37° C., collagen, threshold concentrations
[5] = Rattus norvegicus, iv, read-out: Aconitine-induced dysrhythmia, percent animals protected

Row | Compound | minimal effective concentration [1, 4] | mortality at 216 h (Acute Toxicity in Mice; ip, 100 mg/kg i.p.) | mortality at 216 h (Acute Toxicity in Mice; po, 200 mg/kg p.o.) | Concentration inducing lysis of the clot within 48 hours (human plasma clots) | further results
1 | CN1CC(COc2ccc3c(c2)OCO3)CC1=NCCOc1ccccc1 (stereo not drawn) [Example 19, 1-Methyl-4-(3',4'-methylenedioxy-phenoxymethyl)-2-(2-phenoxy-ethylimino)-pyrrolidine] | 3 to 10 µg/mL | 80% | 0% | – | responders at 2.5 mg/kg [2, 5]: 25%
2 | C=CCN=C1CC(c2cc3ccccc3o2)CN1C (stereo not drawn) [Example 9, 1-Methyl-4-(2-benzofuryl)-2-allylimino-pyrrolidine] | 3 to 10 µg/mL | 60% | – | – | mortality at 216 h (Acute Toxicity in Mice; po, 100 mg/kg p.o.): 0%
3 | CN1CC(c2cc3ccccc3o2)CC1=NCCc1ccccc1 (stereo not drawn) [Example 13, 1-Methyl-4-(2-benzofuryl)-2-phenethylimino-pyrrolidine] | 3 to 30 µg/mL | 100% | 0% | 2.5-5 | responders at 5 mg/kg [2, 5]: 50%; Concentration inducing lysis of the clot within 24 hours (human plasma clots): 10
4 | CCc1ccccc1OCC1CC(=NCCc2ccc(OC)c(OC)c2)N(C)C1 (stereo not drawn) [Example 21, 1-Methyl-4-(2'-ethyl-phenoxymethyl)-2-(3',4'-dimethoxy-phenethylimino)pyrrolidine] | 3 µg/mL | – | 0% | 10-20 | mortality at 216 h (Acute Toxicity in Mice; ip, 33 mg/kg i.p.): 20%; responders at 7.5 mg/kg [2, 5]: 100%
5 | CCN1CC(c2ccccc2)CC1=NCCc1ccc(OC)c(OC)c1 (stereo not drawn) [Example 5, 1-Ethyl-4-phenyl-2-(3',4'-dimethoxy-phenethylimino)pyrrolidine] | 3 to 10 µg/mL | 20% | 0% | – | –
6 | COCCN=C1CC(c2cc3ccccc3o2)CN1C (stereo not drawn) [Example 12, 1-Methyl-4-(2-benzofuryl)-2-(2-methoxy-ethylimino)-pyrrolidine] | 3 to 30 µg/mL | 100% | 0% | – | –
7 | CN1CC(c2cc3ccccc3o2)CC1=NCCO (stereo not drawn) [Example 11] | 10 to 100 µg/mL | – | 0% | – | mortality at 216 h (Acute Toxicity in Mice; ip, 200 mg/kg i.p.): 80%
8 | CN1CC(c2cc3ccccc3o2)CC1=NCCOc1ccccc1 (stereo not drawn) [Example 15, 1-Methyl-4-(2-benzofuryl)-2-(2-phenoxy-ethylimino)-pyrrolidine] | – | 100% | 10% | – | responders at 5 mg/kg [2, 5]: 80%
9 | COc1ccc(CCN=C2CC(c3cc4ccccc4o3)CN2C)cc1OC (stereo not drawn) [Example 16] | 10 to 30 µg/mL | 100% | 0% | – | responders at 3 mg/kg [2, 5]: 80%
10 | C=CCN1CC(c2ccccc2)CC1=NCCc1ccc(OC)c(OC)c1 (stereo not drawn) [Example 7, 1-Allyl-4-phenyl-2-(3',4'-dimethoxy-phenethyl-imino)pyrrolidine] | 10 µg/mL | – | – | 10-20 | –
11 | COc1ccc(CCN=C2CC(c3ccccc3)CN2C)cc1OC (stereo not drawn) [Example 4, 1-Methyl-4-phenyl-2-(3',4'-dimethoxy-phenethylimino)pyrrolidine] | 10 to 30 µg/mL | – | 0% | – | mortality at 216 h (Acute Toxicity in Mice; ip, 200 mg/kg i.p.): 100%; responders at 7.5 mg/kg [2, 5]: 90%
12 | CN1CC(COc2ccccc2)CC1=NCCOc1ccccc1 (stereo not drawn) [Example 17, 1-Methyl-4-phenoxymethyl-2-(2-phenoxy-ethylimino)-pyrrolidine] | 3 µg/mL | – | – | – | responders at 10 mg/kg [2, 5]: 100%
13 | COc1ccc(CCN=C2CC(COc3ccc4c(c3)OCO4)CN2C)cc1OC (stereo not drawn) [Example 20, 1-Methyl-4-(3',4'-methylenedioxy-phenoxymethyl)-4-(3',4'-dimethoxy-phenethylimino)pyrrolidine] | 10 to 30 µg/mL | 80% | 0% | – | responders at 10 mg/kg [2, 5]: 100%
14 | CC(Cc1ccccc1)N=C1CC(c2cc3ccccc3o2)CN1C (stereo not drawn) [Example 14, 1-Methyl-4-(2-benzofuryl)-2-phenylisopropyl-imino-pyrrolidine] | 3 to 10 µg/mL | 80% | 0% | – | responders at 5 mg/kg [2, 5]: 100%
15 | CC(Cc1ccccc1)N=C1CC(c2ccccc2)CN1C (stereo not drawn) [Example 2, 1-Methyl-4-phenyl-2-phenylisopropylimino-pyrrolidine] | 10 µg/mL | 100% | 83% | – | responders at 1 mg/kg [2, 5]: 67%
16 | C#CCN=C1CC(c2cc3ccccc3o2)CN1C (stereo not drawn) [Example 10, 1-Methyl-4-(2-benzofuryl)-2-propargylimino-pyrrolidine] | 100 µg/mL | – | – | – | –
17 | CN1CC(COc2ccccc2C#N)CC1=NCCOc1ccccc1 (stereo not drawn) [Example 22, 1-Methyl-4-(2'-cyano-phenoxymethyl)-2-(2-phenoxyethylimino)-pyrrolidine] | 30 µg/mL | – | 0% | 5-10 | mortality at 216 h (Acute Toxicity in Mice; ip, 33 mg/kg i.p.): 40%; Concentration inducing lysis of the clot within 24 hours (human plasma clots): 20
18 | COc1ccc(CCN=C2CC(COc3ccccc3)CN2C)cc1OC (stereo not drawn) [Example 18, 1-Methyl-4-phenoxymethyl-2-(3',4'-dimethoxy-phenethylimino)pyrrolidine] | 10 to 30 µg/mL | 40% | 0% | 20 | responders at 5 mg/kg [2, 5]: 100%
19 | CN1CC(c2ccccc2)CC1=NCCc1ccccc1 (stereo not drawn) [Example 1, 1-Methyl-4-phenyl-2-phenylethylimino-pyrrolidine] | – | 80% | 0% | – | responders at 1 mg/kg [2, 5]: 25%
20 | CCCN1CC(c2ccccc2)CC1=NCCOc1ccccc1 (stereo not drawn) [Example 6, 1-n.Propyl-4-phenyl-2-(phenoxyethyl-imino)pyrrolidine] | 1 to 3 µg/mL | – | – | 5-10 | –
21 | CN1CC(c2ccccc2)CC1=NCCOc1ccccc1 (stereo not drawn) [Example 3, 1-Methyl-4-phenyl-2-(2-phenoxy-ethylimino)pyrrolidine] | 1 to 3 µg/mL | – | 0% | – | anti-blood-platelet-aggregation activity ([1]; result in words): possesses an anti-blood-platelet aggregating activity; toxicity [3]: least toxic in mice; mortality at 216 h (Acute Toxicity in Mice; ip, 200 mg/kg i.p.): 0%; responders at 10 mg/kg [2, 5]: 83%; anti-arrhythmic activity ([2]; result in words): an anti-arrhythmic activity; Concentration inducing lysis of the clot within 24 hours (human plasma clots): 10-20; fibrinolytic activity (human plasma clots; result in words): a fibrinolytic activity; α-adrenolytic activity (α-adrenolytic activity): an α-adrenolytic activity
22 | COc1ccc(CCN=C2CCCN2C)cc1OC [Compound A, 1-methyl-2-[(3,4-dimethoxy-phenylethyl)imino]pyrrolidine, reference compound] | – | – | 0% | – | Collagen-induced blood-platelet aggregation: Threshold concentrations (inhibition of aggregation <50%) [1, 4]: inactive; mortality at 216 h (Acute Toxicity in Mice; ip, 200 mg/kg i.p.): 60%; responders at 5 mg/kg [2, 5]: 0%; action on the cardiac rhythm (cardiac rhythm): decreasing action on the cardiac rhythm
23 | CCCN=C1CC(c2cc3ccccc3o2)CN1C (stereo not drawn) [Example 8, 1-Methyl-4-(2-benzofuryl)-2-n.propyl-imino-pyrrolidine] | 10 to 30 µg/mL | – | – | 20 | –
